Data as given in patent US6355608B1, “Detergent composition” (Shiseido Co., Ltd., priority 1998, dated 2002).

Assays:
[1] = Lathering/foaming test: foam volume in a mixer with artificial dirt; type: physicochemical; conditions: mixtures of N-methyl taurate laurate and sodium laurate, total 100 mmol/L; 400 ml with 2g artificial dirt, stirred 60 seconds
[2] = Foaming test with the shaking method; type: physicochemical
Description: (§1) 0.5 wt % of each sample in Table 1 was dissolved in ion exchanged water with 70 ppm calcium chloride already dissolved in it. […] This solution was kept at 30° C. put into a Nessler's tube with an inner diameter of 3 cm and a height of 20 cm equipped with a sliding plug, and then tilted 90 degrees every second using a pendulum type shaker. After one minute, the sample was taken out of the shaker and the foam height, the foam film thickness and the foam density were measured. The time required for the foam height to be reduced to a half of the original height was also measured. The foam film thickness was measured by taking a photograph of the foam using a microscope at 100 times magnification and calculating the average value on the photograph. The foam density was obtained by sampling 10 ml of the foam and measuring its weight.
as §1, with “Table 6” for “Table 1”, “30° C.,” for “30° C.”
as §1, with “Table 11” for “Table 1”, “30° C.,” for “30° C.”
as §1, with “sample” for “sample in Table 1”, “C.,” for “C.”, “weight. […]” for “weight.”

| Compound | Foaming (in words) ([2]; pH 7) | Foaming (in words) ([2]; pH 4) | other results |
| --- | --- | --- | --- |
| CNCCS(=O)(=O)O [N-methyl taurine] |  |  | Lathering/foaming ability (foam volume, FIG. 6) [1]: good lathering/foaming ability |
| Magnesium laurate [Control sample 3] | harder to foam |  |  |
| Potassium hydroxylaurate [Control sample 2] | harder to foam |  |  |
| Potassium hydroxylauryl ether carboxylate [Control sample 2] |  | harder to foam |  |
| Sodium hydroxylaurate [Control sample 1] | harder to foam |  |  |
| Sodium hydroxylauryl ether carboxylate [Control sample 1] |  | harder to foam |  |
